# Test results from PubChem BioAssay (NCI).
#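 The compound was tested at five concentrations on cells cultured in 96-well plates, with a 48-hour exposure period. The concentration for 50% growth inhibition is given as GI50. TGI denotes the concentration required for complete inhibition of growth.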
# Assays:
# Experiment in all cases: inhibition of tumour cell growth, NCI panel, 48 h
# SF-539 CNS = test system: SF-539 CNS
# UACC-257 melanoma = test system: UACC-257 melanoma
# SN12C renal = test system: SN12C renal
# IGROV1 ovarian = test system: IGROV1 ovarian
# NCI-H522 lung = test system: NCI-H522 lung
# SK-OV-3 ovarian = test system: SK-OV-3 ovarian
# DLD-1 colon = test system: DLD-1 colon
# MALME-3M melanoma = test system: MALME-3M melanoma
# OVCAR-5 ovarian = test system: OVCAR-5 ovarian
# COLO 205 colon = test system: COLO 205 colon
# A498 renal = test system: A498 renal
# OVCAR-4 ovarian = test system: OVCAR-4 ovarian
# RPMI-8226 leukemia = test system: RPMI-8226 leukemia
# HCT-15 colon = test system: HCT-15 colon
# SF-295 CNS = test system: SF-295 CNS
# HCT-116 colon = test system: HCT-116 colon
# KM12 colon = test system: KM12 colon
# UO-31 renal = test system: UO-31 renal
# MOLT-4 leukemia = test system: MOLT-4 leukemia
# OVCAR-8 ovarian = test system: OVCAR-8 ovarian
# M14 melanoma = test system: M14 melanoma
# A549 NSCLC = test system: A549 NSCLC
# SW-620 colon = test system: SW-620 colon
# EKVX NSCLC = test system: EKVX NSCLC
# SNB-78 CNS = test system: SNB-78 CNS
# TK-10 renal = test system: TK-10 renal
# OVCAR-3 ovarian = test system: OVCAR-3 ovarian
# NCI-H460 lung = test system: NCI-H460 lung
# U251 CNS = test system: U251 CNS
# LXFL 529 NSCLC = test system: LXFL 529 NSCLC
# HOP-92 NSCLC = test system: HOP-92 NSCLC
# ACHN renal = test system: ACHN renal
# SNB-75 CNS = test system: SNB-75 CNS
# SNB-19 CNS = test system: SNB-19 CNS
# UACC-62 melanoma = test system: UACC-62 melanoma
# SF-268 CNS = test system: SF-268 CNS
# SK-MEL-28 melanoma = test system: SK-MEL-28 melanoma
# CCRF-CEM leukemia = test system: CCRF-CEM leukemia
# SK-MEL-5 melanoma = test system: SK-MEL-5 melanoma
# NCI-H23 lung = test system: NCI-H23 lung
# LOX IMVI melanoma = test system: LOX IMVI melanoma
# HCC-2998 colon = test system: HCC-2998 colon
# KM20L2 colon = test system: KM20L2 colon
# 786-0 renal = test system: 786-0 renal
# K-562 leukemia = test system: K-562 leukemia
# SK-MEL-2 melanoma = test system: SK-MEL-2 melanoma
# HOP-62 NSCLC = test system: HOP-62 NSCLC
# HT29 colon = test system: HT29 colon
smiles,measurement,setting,value
NCCN.NCCN.O=C([O-])CCl.O=C([O-])CCl.[Co+3].[O-][Cl+3]([O-])([O-])[O-],GI50,SF-539 CNS,> 100 µM
same,TGI,SF-539 CNS,> 100 µM
same,GI50,UACC-257 melanoma,> 100 µM
same,TGI,UACC-257 melanoma,> 100 µM
same,GI50,SN12C renal,> 100 µM
same,TGI,SN12C renal,> 100 µM
same,GI50,IGROV1 ovarian,> 100 µM
same,TGI,IGROV1 ovarian,> 100 µM
same,GI50,NCI-H522 lung,> 100 µM
same,TGI,NCI-H522 lung,> 100 µM
same,GI50,SK-OV-3 ovarian,> 100 µM
same,TGI,SK-OV-3 ovarian,> 100 µM
same,GI50,DLD-1 colon,> 100 µM
same,TGI,DLD-1 colon,> 100 µM
same,GI50,MALME-3M melanoma,> 100 µM
same,TGI,MALME-3M melanoma,> 100 µM
same,GI50,OVCAR-5 ovarian,> 100 µM
same,TGI,OVCAR-5 ovarian,> 100 µM
same,GI50,COLO 205 colon,> 100 µM
same,TGI,COLO 205 colon,> 100 µM
same,GI50,A498 renal,> 100 µM
same,TGI,A498 renal,> 100 µM
same,GI50,OVCAR-4 ovarian,> 100 µM
same,TGI,OVCAR-4 ovarian,> 100 µM
same,GI50,RPMI-8226 leukemia,> 100 µM
same,TGI,RPMI-8226 leukemia,> 100 µM
same,GI50,HCT-15 colon,> 100 µM
same,TGI,HCT-15 colon,> 100 µM
same,GI50,SF-295 CNS,> 100 µM
same,TGI,SF-295 CNS,> 100 µM
same,GI50,HCT-116 colon,> 100 µM
same,TGI,HCT-116 colon,> 100 µM
same,GI50,KM12 colon,> 100 µM
same,TGI,KM12 colon,> 100 µM
same,GI50,UO-31 renal,> 100 µM
same,TGI,UO-31 renal,> 100 µM
same,GI50,MOLT-4 leukemia,> 100 µM
same,TGI,MOLT-4 leukemia,> 100 µM
same,GI50,OVCAR-8 ovarian,> 100 µM
same,TGI,OVCAR-8 ovarian,> 100 µM
same,GI50,M14 melanoma,> 100 µM
same,TGI,M14 melanoma,> 100 µM
same,GI50,A549 NSCLC,> 100 µM
same,TGI,A549 NSCLC,> 100 µM
same,GI50,SW-620 colon,> 100 µM
same,TGI,SW-620 colon,> 100 µM
same,GI50,EKVX NSCLC,> 100 µM
same,TGI,EKVX NSCLC,> 100 µM
same,GI50,SNB-78 CNS,> 100 µM
same,TGI,SNB-78 CNS,> 100 µM
same,GI50,TK-10 renal,> 100 µM
same,TGI,TK-10 renal,> 100 µM
same,GI50,OVCAR-3 ovarian,> 100 µM
same,TGI,OVCAR-3 ovarian,> 100 µM
same,GI50,NCI-H460 lung,> 100 µM
same,TGI,NCI-H460 lung,> 100 µM
same,GI50,U251 CNS,> 100 µM
same,TGI,U251 CNS,> 100 µM
same,GI50,LXFL 529 NSCLC,> 100 µM
same,TGI,LXFL 529 NSCLC,> 100 µM
same,GI50,HOP-92 NSCLC,> 100 µM
same,TGI,HOP-92 NSCLC,> 100 µM
same,GI50,ACHN renal,> 100 µM
same,TGI,ACHN renal,> 100 µM
same,GI50,SNB-75 CNS,74.7 µM
same,TGI,SNB-75 CNS,> 100 µM
same,GI50,SNB-19 CNS,> 100 µM
same,TGI,SNB-19 CNS,> 100 µM
same,GI50,UACC-62 melanoma,> 100 µM
same,TGI,UACC-62 melanoma,> 100 µM
same,GI50,SF-268 CNS,> 100 µM
same,TGI,SF-268 CNS,> 100 µM
same,GI50,SK-MEL-28 melanoma,> 100 µM
same,TGI,SK-MEL-28 melanoma,> 100 µM
same,GI50,CCRF-CEM leukemia,> 100 µM
same,TGI,CCRF-CEM leukemia,> 100 µM
same,GI50,SK-MEL-5 melanoma,> 100 µM
same,TGI,SK-MEL-5 melanoma,> 100 µM
same,GI50,NCI-H23 lung,> 100 µM
same,TGI,NCI-H23 lung,> 100 µM
same,GI50,LOX IMVI melanoma,> 100 µM
same,TGI,LOX IMVI melanoma,> 100 µM
same,GI50,HCC-2998 colon,> 100 µM
same,TGI,HCC-2998 colon,> 100 µM
same,GI50,KM20L2 colon,> 100 µM
same,TGI,KM20L2 colon,> 100 µM
same,GI50,786-0 renal,> 100 µM
same,TGI,786-0 renal,> 100 µM
same,GI50,K-562 leukemia,> 100 µM
same,TGI,K-562 leukemia,> 100 µM
same,GI50,SK-MEL-2 melanoma,> 100 µM
same,TGI,SK-MEL-2 melanoma,> 100 µM
same,GI50,HOP-62 NSCLC,> 100 µM
same,TGI,HOP-62 NSCLC,> 100 µM
same,GI50,HT29 colon,> 100 µM
same,TGI,HT29 colon,> 100 µM
